In brackets after ≈: the same amount, converted by molar mass.
The molecules below were run on Staphylococcus aureus (Isolate ID ATCC 29213) (assay: Bacterial assay: MIC by broth microdilution or agar dilution (CLSI), S. aureus ATCC 29213). Conditions: S. aureus (ATCC29213).
Assay type: cell-based
Method in brief: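 Activity is binned (A ≤0.25 μg/mL; B >0.25–1.0; C >1.0–16; D >16 μg/mL) from MICs determined per CLSI by broth microdilution or agar dilution, on S. aureus ATCC 29213 plus an FtsZ-G196A mutant strain.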
For `NC(=O)c1c(F)ccc(OC(CC(O)CO)c2nc(-c3ccc(C(F)(F)F)cc3)c(Br)o2)c1F` (centres unmarked) [Compound 157, 3-(1-(5-bromo-4-(4-(trifluoromethyl)phenyl)oxazol-2-yl)-3,4-dihydroxybutoxy)-2,6-difluorobenzamide], the “S. aureus MIC (μg/mL) Activity Range” value was “B (activity>0.25 μg/mL-1.0 μg/mL)”.

Same assay, conditions: Staphylococcus aureus, ATCC29213, read-out: S. aureus MIC (μg/mL) Activity Range, S. aureus (ATCC29213)
`NC(=O)c1c(F)ccc(OC(COC(=O)NCCn2ccccc2=O)c2nc(-c3ccc(C(F)(F)F)cc3)c(Br)o2)c1F` (centres unmarked) [Compound 217, 2-(5-bromo-4-(4-(trifluoromethyl)phenyl)oxazol-2-yl)-2-(3-carbamoyl-2,4-difluorophenoxy)ethyl (2-(2-oxopyridin-1(2H)-yl)ethyl)carbamate] showed an MIC of 0.25 to 1 µg/mL (≈ 0.372 to 1.49 µM).
In the case of `NC(=O)c1c(F)ccc(OC(COC(=O)CCN2C(=O)c3ccccc3C2=O)c2nc(-c3ccc(C(F)(F)F)cc3)c(Br)o2)c1F` (centres unmarked) [Compound 64, 2-(5-bromo-4-(4-(trifluoromethyl)phenyl)oxazol-2-yl)-2-(3-carbamoyl-2,4-difluorophenoxy)ethyl 3-(1,3-dioxoisoindolin-2-yl)propanoate], the MIC is reported as under 0.25 µg/mL.
With `NC(=O)c1c(F)ccc(OC(CO)c2nc(-c3ccc(Cl)nc3)c(Br)o2)c1F` (centres unmarked) [Compound 241, 3-(1-(5-bromo-4-(6-chloropyridin-3-yl)oxazol-2-yl)-2-hydroxyethoxy)-2,6-difluorobenzamide] the MIC was 1 to 16 µg/mL (≈ 2.11 to 33.7 µM).
Work on `NC(=O)c1c(F)ccc(O[C@H](CO)c2nc(-c3cncs3)c(Br)o2)c1F` [Compound 247B, (R)-3-(1-(5-bromo-4-(thiazol-5-yl)oxazol-2-yl)-2-hydroxyethoxy)-2,6-difluorobenzamide] yielded an MIC of over 16 µg/mL.
Molecule `Cc1ccc(-c2csc(C(CO)Oc3ccc(F)c(C(N)=O)c3F)n2)cn1` (centres unmarked) [Compound 264, 2,6-difluoro-3-(2-hydroxy-1-(4-(6-methylpyridin-3-yl)thiazol-2-yl)ethoxy)benzamide] has an MIC of over 16 µg/mL.
Work on `CCOC(=O)CNC(=O)OCC(Oc1ccc(F)c(C(N)=O)c1F)c1nc(-c2ccc(C(F)(F)F)cc2)c(Br)o1` (centres unmarked) [Compound 140, ethyl 2-(((2-(5-bromo-4-(4-(trifluoromethyl)phenyl)oxazol-2-yl)-2-(3-carbamoyl-2,4-difluorophenoxy)ethoxy)carbonyl)amino)acetate] yielded an MIC of 0.25 to 1 µg/mL (≈ 0.393 to 1.57 µM).
`NCCNC(=O)OCC(Oc1ccc(F)c(C(N)=O)c1F)c1nc(-c2ccc(C(F)(F)F)cc2)c(Br)o1` (centres unmarked) [Compound 152, 2-(5-bromo-4-(4-(trifluoromethyl)phenyl)oxazol-2-yl)-2-(3-carbamoyl-2,4-difluorophenoxy)ethyl (2-aminoethyl)carbamate] showed an MIC of 1 to 16 µg/mL (≈ 1.69 to 27 µM).
For `COc1ccc(CCc2csc(C(CO)Oc3ccc(F)c(C(N)=O)c3F)n2)cc1` (centres unmarked) [Compound 262, 2,6-difluoro-3-(2-hydroxy-1-(4-(4-methoxyphenethyl)thiazol-2-yl)ethoxy)benzamide], the MIC was 1 to 16 µg/mL (≈ 2.3 to 36.8 µM).
With `CC(=O)OCC(Oc1cccc(C(N)=O)c1F)c1nc(-c2ccc(C(F)(F)F)cc2)c(Br)o1` (centres unmarked) [Compound 158, 2-(5-bromo-4-(4-(trifluoromethyl)phenyl)oxazol-2-yl)-2-(3-carbamoyl-2-fluorophenoxy)ethyl acetate] the MIC was under 0.25 µg/mL.
Molecule `NC(=O)c1c(F)ccc(O[C@H](CO)c2nc(-c3ccc(Cl)s3)c(Br)o2)c1F` [Compound 250B, (R)-3-(1-(5-bromo-4-(5-chlorothiophen-2-yl)oxazol-2-yl)-2-hydroxyethoxy)-2,6-difluorobenzamide] has an MIC of under 0.25 µg/mL.
For `COCC(Oc1ccc(F)c(C(N)=O)c1F)c1nc(-c2ccc(C(F)(F)F)cc2)c(Br)o1` (centres unmarked) [Compound 103, 3-(1-(5-bromo-4-(4-(trifluoromethyl)phenyl)oxazol-2-yl)-2-methoxyethoxy)-2,6-difluorobenzamide], the MIC was 0.25 to 1 µg/mL (≈ 0.48 to 1.92 µM).
Molecule `COc1ccc(-c2coc(C(CO)Oc3ccc(F)c(C(N)=O)c3F)n2)c(F)c1` (centres unmarked) [Compound 228, 2,6-difluoro-3-(1-(4-(2-fluoro-4-methoxyphenyl)oxazol-2-yl)-2-hydroxyethoxy)benzamide] has an MIC of over 16 µg/mL.
`CN(CC(=O)OCC(Oc1ccc(F)c(C(N)=O)c1F)c1nc(-c2ccc(Cl)cc2)c(Cl)o1)C(=O)OC(C)(C)C` (centres unmarked) [Compound 58, 2-(3-carbamoyl-2,4-difluorophenoxy)-2-(5-chloro-4-(4-chlorophenyl)oxazol-2-yl)ethyl 2-((tert-butoxycarbonyl)(methyl)amino)acetate] showed an MIC of 1 to 16 µg/mL (≈ 1.67 to 26.6 µM).
Molecule `CC(Oc1ccc(F)c(C(N)=O)c1F)c1nc(-c2ccc(C(F)(F)F)cn2)c(Cl)o1` (centres unmarked) [Compound 43] has an MIC of 1 to 16 µg/mL (≈ 2.23 to 35.7 µM).
For `NC(=O)c1c(F)ccc(OC(CO)c2nc(-c3ccc(Cl)c(F)c3)c(Br)o2)c1F` (centres unmarked) [Compound 225, 3-(1-(5-bromo-4-(4-chloro-3-fluorophenyl)oxazol-2-yl)-2-hydroxyethoxy)-2,6-difluorobenzamide], the MIC was 0.25 to 1 µg/mL (≈ 0.508 to 2.03 µM).
Work on `NC(=O)c1c(F)ccc(OC(COC(=O)NCc2ccncc2)c2nc(-c3ccc(C(F)(F)F)cc3)c(Br)o2)c1F` (centres unmarked) [Compound 167, 2-(5-bromo-4-(4-(trifluoromethyl)phenyl)oxazol-2-yl)-2-(3-carbamoyl-2,4-difluorophenoxy)ethyl (pyridin-4-ylmethyl)carbamate] yielded an MIC of under 0.25 µg/mL.
`NC(=O)c1c(F)ccc(OC(COC(=O)Cn2cccc2)c2nc(-c3ccc(C(F)(F)F)cc3)c(Br)o2)c1F` (centres unmarked) [Compound 68, 2-(5-bromo-4-(4-(trifluoromethyl)phenyl)oxazol-2-yl)-2-(3-carbamoyl-2,4-difluorophenoxy)ethyl 2-(1H-pyrrol-1-yl)acetate] showed an MIC of under 0.25 µg/mL.
In the case of `NC(=O)c1c(F)ccc(OC(CO)c2nc(-c3ccc(C(F)(F)F)cc3)sc2Br)c1F` (centres unmarked) [Compound 131, 3-(1-(5-bromo-2-(4-(trifluoromethyl)phenyl)thiazol-4-yl)-2-hydroxyethoxy)-2,6-difluorobenzamide], the MIC is reported as over 16 µg/mL.
With `NC(=O)c1c(F)ccc(OC(COC(=O)NCC(=O)O)c2nc(-c3ccc(C(F)(F)F)cc3)c(Br)o2)c1F` (centres unmarked) [Compound 142, 2-(((2-(5-bromo-4-(4-(trifluoromethyl)phenyl)oxazol-2-yl)-2-(3-carbamoyl-2,4-difluorophenoxy)ethoxy)carbonyl)amino)acetic acid] the MIC was over 16 µg/mL.
Molecule `Cc1nnc(CCC(Oc2ccc(F)c(C(N)=O)c2F)c2nc(-c3ccc(C(F)(F)F)cc3)c(Br)o2)o1` (centres unmarked) [Compound 97, 3-(1-(5-bromo-4-(4-(trifluoromethyl)phenyl)oxazol-2-yl)-3-(5-methyl-1,3,4-oxadiazol-2-yl)propoxy)-2,6-difluorobenzamide] has an MIC of 1 to 16 µg/mL (≈ 1.7 to 27.2 µM).
Molecule `NC(=O)CCC(Oc1ccc(F)c(C(N)=O)c1F)c1nc(-c2ccc(C(F)(F)F)cc2)c(Br)o1` (centres unmarked) [Compound 101, 3-(4-amino-1-(5-bromo-4-(4-(trifluoromethyl)phenyl)oxazol-2-yl)-4-oxobutoxy)-2,6-difluorobenzamide] has an MIC of 0.25 to 1 µg/mL (≈ 0.456 to 1.82 µM).
In the case of `CC(=O)OCC(Oc1ccc(F)c(C(N)=O)c1F)c1nc(-c2ccc(OC(F)(F)F)cc2)c(Br)o1` (centres unmarked) [Compound 115, 2-(5-bromo-4-(4-(trifluoromethoxy)phenyl)oxazol-2-yl)-2-(3-carbamoyl-2,4-difluorophenoxy)ethyl acetate], the MIC is reported as under 0.25 µg/mL.
`CC(=O)NNC(=O)CC(Oc1ccc(F)c(C(N)=O)c1F)c1nc(-c2ccc(C(F)(F)F)cc2)c(Br)o1` (centres unmarked) [Compound 100, 3-(3-(2-acetylhydrazinyl)-1-(5-bromo-4-(4-(trifluoromethyl)phenyl)oxazol-2-yl)-3-oxopropoxy)-2,6-difluorobenzamide] was tested, and the MIC was 1 to 16 µg/mL (≈ 1.69 to 27.1 µM).
`Cc1cnccc1CNC(=O)OCC(Oc1ccc(F)c(C(N)=O)c1F)c1nc(-c2ccc(C(F)(F)F)cc2)c(Br)o1` (centres unmarked) [Compound 216, 2-(5-bromo-4-(4-(trifluoromethyl)phenyl)oxazol-2-yl)-2-(3-carbamoyl-2,4-difluorophenoxy)ethyl ((3-methylpyridin-4-yl)methyl)carbamate] showed an MIC of 0.25 to 1 µg/mL (≈ 0.381 to 1.53 µM).
With `Cn1cnc(CNC(=O)OCC(Oc2ccc(F)c(C(N)=O)c2F)c2nc(-c3ccc(C(F)(F)F)cc3)c(Br)o2)c1` (centres unmarked) [Compound 203, 2-(5-bromo-4-(4-(trifluoromethyl)phenyl)oxazol-2-yl)-2-(3-carbamoyl-2,4-difluorophenoxy)ethyl ((1-methyl-1H-imidazol-4-yl)methyl)carbamate] the MIC was 0.25 to 1 µg/mL (≈ 0.388 to 1.55 µM).
With `CCCc1oc(C(CC)Oc2ccc(F)c(C(N)=O)c2F)nc1-c1ccc(Cl)cc1` (centres unmarked) [Compound 26, 3-(1-(4-(4-chlorophenyl)-5-propyloxazol-2-yl)propoxy)-2,6-difluorobenzamide] the MIC was 0.25 to 1 µg/mL (≈ 0.575 to 2.3 µM).
Molecule `NC(=O)c1c(F)ccc(OC(COC(=O)CCCN2C(=O)c3ccccc3C2=O)c2nc(-c3ccc(C(F)(F)F)cc3)c(Br)o2)c1F` (centres unmarked) [Compound 69, 2-(5-bromo-4-(4-(trifluoromethyl)phenyl)oxazol-2-yl)-2-(3-carbamoyl-2,4-difluorophenoxy)ethyl 4-(1,3-dioxoisoindolin-2-yl)butanoate] has an MIC of 0.25 to 1 µg/mL (≈ 0.346 to 1.38 µM).
For `CNc1ccc(-c2coc(C(CO)Oc3ccc(F)c(C(N)=O)c3F)n2)cn1` (centres unmarked) [Compound 220, 2,6-difluoro-3-(2-hydroxy-1-(4-(6-(methylamino)pyridin-3-yl)oxazol-2-yl)ethoxy)benzamide], the MIC was over 16 µg/mL.
Molecule `Cc1nnc(C(Oc2ccc(F)c(C(N)=O)c2F)c2nc(-c3ccc(C(F)(F)F)cc3)co2)o1` (centres unmarked) [Compound 218, 2,6-difluoro-3-((5-methyl-1,3,4-oxadiazol-2-yl)(4-(4-(trifluoromethyl)phenyl)oxazol-2-yl)methoxy)benzamide] has an MIC of over 16 µg/mL.
In the case of `Cn1cccc1CNC(=O)OCC(Oc1ccc(F)c(C(N)=O)c1F)c1nc(-c2ccc(C(F)(F)F)cc2)c(Br)o1` (centres unmarked) [Compound 202, 2-(5-bromo-4-(4-(trifluoromethyl)phenyl)oxazol-2-yl)-2-(3-carbamoyl-2,4-difluorophenoxy)ethyl ((1-methyl-1H-pyrrol-2-yl)methyl)carbamate], the MIC is reported as 0.25 to 1 µg/mL (≈ 0.389 to 1.55 µM).
`NC(=O)c1c(F)ccc(OC(COC(=O)NCc2ccc[n+]([O-])c2)c2nc(-c3ccc(C(F)(F)F)cc3)c(Br)o2)c1F` (centres unmarked) [Compound 174, 3-((((2-(5-bromo-4-(4-(trifluoromethyl)phenyl)oxazol-2-yl)-2-(3-carbamoyl-2,4-difluorophenoxy)ethoxy)carbonyl)amino)methyl)pyridine 1-oxide] was tested, and the MIC was over 16 µg/mL.

Source: US9511073B2, “Aromatic amides and uses thereof” (TAXIS Pharmaceuticals, Inc., priority 2011, dated 2016)
